The source of these data is ChEMBL document CHEMBL4257454, “Study on the interaction between the 1,4,5,8-naphthalene diimide-spermine conjugate (NDIS) and DNA using a spectroscopic approach and molecular docking” (Medchemcomm, 2017).

In experiment [1] the test system is Clupeidae. The experiment is described as follows: Binding affinity to herring sperm DNA at 298 K by fluorescence spectroscopic method.
Experiment [2] relates to Clupeidae. The experiment is described as follows: Binding affinity to herring sperm DNA groove assessed as hyperchromic effect at DNA to compound molar ratio of >5.5 after 30 mins by UV-visible spectrophotometric method.
The subject of experiment [3] is Clupeidae. Briefly: Binding affinity to herring sperm DNA assessed as negative peak at 16 to 48 uM up to 30 mins by circular dichroism method (reference value: 210 nanometer). Background: CD spectra are sensitive to the conformation of chiral molecules.
Experiment [4] has as its system Clupeidae. Briefly: Inhibition of ethidium bromide binding to herring sperm DNA assessed as DNA insertion at 3 mg by 1H NMR method.
The subject of experiment [5] is Clupeidae. The experiment is described as follows: Inhibition of ethidium bromide binding to herring sperm DNA assessed as quenching constant at 310 K after 30 mins by fluorescence spectroscopic assay.
Experiment [6] concerns Clupeidae. Briefly: Binding affinity to herring sperm DNA groove assessed as fluorescence quenching at DNA to compound molar ratio of >5.5 by fluorescence spectroscopic method.
For experiment [7], the system named is Clupeidae. Briefly: Binding affinity to herring sperm DNA at 303 K by fluorescence spectroscopic method.
Experiment [8] deals with Clupeidae. Briefly: Binding affinity to herring sperm DNA assessed as Stern-Volmer quenching constant at 298 K by fluorescence spectroscopic method.
Experiment [9] has as its system Clupeidae. Briefly: Binding affinity to herring sperm DNA assessed as quenching constant at 303 K by fluorescence spectroscopic method.
Experiment [10] has as its system Clupeidae. Briefly: Binding affinity to herring sperm DNA assessed as quenching constant at 310 K by fluorescence spectroscopic method.
Experiment [11] has as its system Clupeidae. The experiment is described as follows: Inhibition of ethidium bromide binding to herring sperm DNA at 303 K after 30 mins by fluorescence spectroscopic assay.
Experiment [12] deals with Clupeidae. The experiment is described as follows: Inhibition of ethidium bromide binding to herring sperm DNA at 310 K after 30 mins by fluorescence spectroscopic assay.
For experiment [13], the system named is Clupeidae. The experiment is described as follows: Inhibition of ethidium bromide binding to herring sperm DNA assessed as quenching constant at 298 K after 30 mins by fluorescence spectroscopic assay.
Experiment [14] has as its system Clupeidae. The experiment is described as follows: Inhibition of ethidium bromide binding to herring sperm DNA assessed as Stern-Volmer quenching constant at 298 K after 30 mins by fluorescence spectroscopic assay.
In experiment [15] the test system is Clupeidae. The experiment is described as follows: Inhibition of ethidium bromide binding to herring sperm DNA at 298 K after 30 mins by fluorescence spectroscopic assay.
The test system of experiment [16] is Clupeidae. Briefly: Inhibition of ethidium bromide binding to herring sperm DNA assessed as Stern-Volmer quenching constant at 310 K after 30 mins by fluorescence spectroscopic assay.
For experiment [17], the system named is Clupeidae. The experiment is described as follows: Binding affinity to herring sperm DNA assessed as iodide quenching at 20 uM after 30 mins by fluorescence method (reference value: 27 L/mol).
Experiment [18] concerns Clupeidae. Briefly: Binding affinity to herring sperm DNA after 30 mins by UV-visible spectrophotometric method.
Experiment [19] concerns Clupeidae. The experiment is described as follows: Binding affinity to herring sperm DNA assessed as positive peak at 16 to 48 uM up to 30 mins by circular dichroism method (reference value: 280 nanometer).
The test system of experiment [20] is Clupeidae. Briefly: Binding affinity to herring sperm DNA assessed as Stern-Volmer quenching constant at 310 K by fluorescence spectroscopic method.
For experiment [21], the system named is Clupeidae. Briefly: Binding affinity to herring sperm DNA at 40 uM after 30 mins in presence of Na+ by fluorescence quenching method.
Experiment [22] has as its system Clupeidae. Briefly: Binding affinity to herring sperm DNA assessed as Stern-Volmer quenching constant at 303 K by fluorescence spectroscopic method.
The test system of experiment [23] is Clupeidae. Briefly: Inhibition of ethidium bromide binding to herring sperm DNA assessed as fluorescence quenching of DNA-ethidium bromide complex up to 120 uM after 30 mins by fluorescence spectroscopic assay relative to control. Details: scale not given: the % may be the effect or the level left.
Experiment [24] relates to Clupeidae. Briefly: Binding affinity to herring sperm DNA assessed as red shift at 80 uM after 30 mins by UV-visible spectrophotometric method.
Experiment [25] has as its system Clupeidae. The experiment is described as follows: Inhibition of ethidium bromide binding to herring sperm DNA assessed as Stern-Volmer quenching constant at 303 K after 30 mins by fluorescence spectroscopic assay.
In experiment [26] the test system is Clupeidae. Briefly: Binding affinity to herring sperm DNA assessed as test compound fluorescence quenching by fluorescence spectroscopic method relative to control.
In experiment [27] the test system is Clupeidae. Briefly: Inhibition of ethidium bromide binding to herring sperm DNA assessed as quenching constant at 303 K after 30 mins by fluorescence spectroscopic assay.
Experiment [28] has as its system Clupeidae. Briefly: Binding affinity to herring sperm DNA at 310 K by fluorescence spectroscopic method.
The test system of experiment [29] is Clupeidae. Briefly: Binding affinity to herring sperm DNA assessed as blue shift at 16 to 48 uM up to 30 mins by circular dichroism method.
Experiment [30] concerns Clupeidae. The experiment is described as follows: Binding affinity to herring sperm DNA assessed as quenching constant at 298 K by fluorescence spectroscopic method.
Experiment [31] has as its system Clupeidae. The experiment is described as follows: Binding affinity to herring sperm DNA assessed as hypochromism at 80 uM after 30 mins by UV-visible spectrophotometric method.
Experiment [32] has as its system Clupeidae. The experiment is described as follows: Binding affinity to herring sperm DNA groove assessed as up-field shift at 3 mg by 1H NMR method.

The source made the active and inactive calls. The calls are words filed in the database; no cut-off is given here.

As for `NCCCNCCCCNCCCN1C(=O)c2ccc3c4c(ccc(c24)C1=O)C(=O)N(CCCNCCCCNCCCN)C3=O`, the Kb amounted to 1.38 ×10⁴ L/mol in [1]; 1.25 ×10⁴ L/mol in [7]; 1.25 ×10⁵ L/mol in [11]; 1.21 ×10⁵ L/mol in [12]; 1.23 ×10⁵ L/mol in experiment [15]; 1.7 ×10⁴ L/mol in [28]. Further, the result in experiment [2], in experiment [4], in [6], in [21], in experiment [24] and in [29] was Active. Besides, the result in [32] was Active. The Activity in experiment [3] came to 245 nm; in [19] it was 280 nm; in experiment [23], 87.8%; in experiment [26], 91%; in experiment [31] it was 60.7%. Besides, the Kq was found to be 1.45 ×10¹³ L/mol in experiment [5]; 5.63 ×10¹¹ L/mol in experiment [9]; 4.63 ×10¹¹ L/mol in experiment [10]; 1.18 ×10¹³ L/mol in [13]; 1.28 ×10¹³ L/mol in experiment [27]; 5.32 ×10¹¹ L/mol in [30]. Also, the KSV in [8] was found to be 5.32 ×10³ L/mol; in experiment [14] it was 1.18 ×10⁵ L/mol; in experiment [16], 1.45 ×10⁵ L/mol; in [17], 18.1 L/mol; in experiment [20], 4.63 ×10³ L/mol; in experiment [22] it was 5.63 ×10³ L/mol. Besides, the KSV in experiment [25] is 1.28 ×10⁵ L/mol. The molecule further yielded a Kapp in [18] of 1.55 ×10³ L/mol.
In turn, `NCCCCNCCCN` gave a Kapp in experiment [18] of 1.47 ×10⁵ L/mol.
As to `NCCCNCCCCNCCCN1C(=O)c2cccc3cccc(c23)C1=O`, the values for the Activity in experiment [23], in experiment [26] and in experiment [31] were 77.2%, 68.5% and 40%, respectively.
